Assay results published in BindingDB's records for doi:10.1016/j.bioorg.2016.03.010 (Universiti Teknologi Mara (Uitm), Puncak Alam Campus, 2016).

Target: Urease (Canavalia ensiformis, UniProt P07374)
Experiment: Urease Inhibition Assay
Details: pH 6.8; 30 °C
Method: To understand the binding modes of the compounds given in Table 1, all ligands were docked into the binding site of Urease enzyme. The top ranked conformations of each ligand were saved in a separate database for further evaluation. The docking results well correlated with the experimental results. The reaction mixtures, comprising 25 uL of enzyme (jack bean urease, Sigma aldrich) solution and 55 uL of buffers containing 100 mM urea, were incubated with 5 uL of the test compounds (0.5 mM concentration) at 30 °C for 15 min in 96-well plates. For the kinetics assessment the urea concentrations were changed from 2 to 24 mM. Urease activity was determined by measuring ammonia production using the indophenol method as described by Weatherburn. Briefly, 45 uL of phenol reagent (1% w/v phenol and 0.005% w/v sodium nitroprusside (Sigma Aldrich)) and, 70 uL of alkali reagent (0.5% w/v NaOH (Sigma Aldrich) and 0.1% active chloride NaOCl (Sigma Aldrich)) were added to each well. The increasing absorbance at 630 nm was measured after 50 min, using a microplate reader (Molecular Device, USA). All reactions were performed in triplicate in a final volume of 200 uL. The results (change in absorbance per min) were processed by using SoftMax-Pro software (molecular Device, USA). The entire assays were performed at pH 6.8.

Urease, sequence (P07374 whole entry): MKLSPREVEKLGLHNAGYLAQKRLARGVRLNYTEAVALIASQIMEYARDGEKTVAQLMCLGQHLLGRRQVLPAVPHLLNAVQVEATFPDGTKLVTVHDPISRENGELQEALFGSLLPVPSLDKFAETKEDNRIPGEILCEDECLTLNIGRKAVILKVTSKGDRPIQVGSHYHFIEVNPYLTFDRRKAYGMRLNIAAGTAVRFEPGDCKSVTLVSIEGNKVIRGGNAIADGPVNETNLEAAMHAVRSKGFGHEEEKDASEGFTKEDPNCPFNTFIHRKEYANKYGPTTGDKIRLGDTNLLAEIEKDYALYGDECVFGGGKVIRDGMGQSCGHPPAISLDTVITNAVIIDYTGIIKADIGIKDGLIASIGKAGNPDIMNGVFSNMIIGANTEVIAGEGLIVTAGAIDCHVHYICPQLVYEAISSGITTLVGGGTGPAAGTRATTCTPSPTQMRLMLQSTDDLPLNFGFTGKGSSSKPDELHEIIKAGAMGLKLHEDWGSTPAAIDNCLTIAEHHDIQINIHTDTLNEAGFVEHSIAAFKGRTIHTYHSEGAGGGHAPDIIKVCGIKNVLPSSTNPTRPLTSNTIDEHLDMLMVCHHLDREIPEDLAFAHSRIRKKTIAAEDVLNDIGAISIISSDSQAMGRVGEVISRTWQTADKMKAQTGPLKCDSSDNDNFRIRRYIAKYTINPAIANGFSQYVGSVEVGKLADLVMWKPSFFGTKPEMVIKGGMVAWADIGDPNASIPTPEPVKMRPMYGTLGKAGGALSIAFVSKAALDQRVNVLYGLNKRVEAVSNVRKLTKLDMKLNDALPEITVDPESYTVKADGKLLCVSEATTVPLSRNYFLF

Compound | IC50
O=C(NNC(=S)Nc1ccc(Cl)cc1)c1ccc(-c2nc3ccccc3s2)cc1 [2-(4-(benzo[d]thiazol-2-yl)benzoyl)-N-(4-chlorophenyl)hydrazinecarbothioamide (8)] | 5.5 µM
O=C(NNC(=S)Nc1cccc(Br)c1)c1ccc(-c2nc3ccccc3s2)cc1 [4-(1,3-benzothiazol-2-yl)-N-{[(3-bromophenyl)carbamothioyl]amino}benzamide (13)] | 11.4 µM
COc1cccc(NC(=S)NNC(=O)c2ccc(-c3nc4ccccc4s3)cc2)c1 [2-(4-(benzo[d]thiazol-2-yl)benzoyl)-N-(3-methoxyphenyl)hydrazinecarbothioamide (15)] | 28.1 µM
Cc1cccc(NC(=S)NNC(=O)c2ccc(-c3nc4ccccc4s3)cc2)c1 [2-(4-(benzo[d]thiazol-2-yl)benzoyl)-N-(m-tolyl)hydrazinecarbothioamide (11)] | 18.7 µM
O=C(NNC(=S)Nc1cccc(F)c1)c1ccc(-c2nc3ccccc3s2)cc1 [2-(4-(benzo[d]thiazol-2-yl)benzoyl)-N-(3-fluorophenyl)hydrazinecarbothioamide (12)] | 6.3 µM
O=C(NNC(=S)Nc1ccccc1Cl)c1ccc(-c2nc3ccccc3s2)cc1 [2-(4-(benzo[d]thiazol-2-yl)benzoyl)-N-(2-chlorophenyl)hydrazinecarbothioamide (3)] | 4.3 µM
O=C(NNC(=S)Nc1ccc(C(F)(F)F)cc1)c1ccc(-c2nc3ccccc3s2)cc1 [2-(4-(benzo[d]thiazol-2-yl)benzoyl)-N-(4-(trifluoromethyl)phenyl)hydrazine-carbothioamide (17)] | 1.6 µM
Cc1ccc(NC(=S)NNC(=O)c2ccc(-c3nc4ccccc4s3)cc2)cc1 [2-(4-(benzo[d]thiazol-2-yl)benzoyl)-N-(p-tolyl)hydrazinecarbothioamide (5)] | 10.4 µM
O=C(NNC(=S)Nc1ccccc1F)c1ccc(-c2nc3ccccc3s2)cc1 [2-(4-(benzo[d]thiazol-2-yl)benzoyl)-N-(2-fluorophenyl)hydrazinecarbothioamide (2)] | 3.4 µM
O=C(NNC(=S)Nc1ccc([N+](=O)[O-])cc1)c1ccc(-c2nc3ccccc3s2)cc1 [2-(4-(benzo[d]thiazol-2-yl)benzoyl)-N-(4-nitrophenyl)hydrazinecarbothioamide (10)] | 1.4 µM
O=C(NNC(=S)Nc1ccccc1Br)c1ccc(-c2nc3ccccc3s2)cc1 [2-(4-(benzo[d]thiazol-2-yl)benzoyl)-N-(2-bromophenyl)hydrazinecarbothioamide (4)] | 6.9 µM
O=C(NNC(=S)NC12CC3CC(CC(C3)C1)C2)c1ccc(-c2nc3ccccc3s2)cc1 [N-(adamantan-1-yl)-2-(4-(benzo[d]thiazol-2-yl)benzoyl)hydrazinecarbothioamide (19)] | 34.4 µM
Cc1ccccc1NC(=S)NNC(=O)c1ccc(-c2nc3ccccc3s2)cc1 [2-(4-(benzo[d]thiazol-2-yl)benzoyl)-N-(o-tolyl)hydrazinecarbothioamide (1)] | 7.4 µM
O=C(NNC(=S)Nc1ccccc1)c1ccc(-c2nc3ccccc3s2)cc1 [2-(4-(benzo[d]thiazol-2-yl)benzoyl)-N-phenylhydrazinecarbothioamide (20)] | 19.1 µM
COc1ccc(NC(=S)NNC(=O)c2ccc(-c3nc4ccccc4s3)cc2)cc1 [2-(4-(benzo[d]thiazol-2-yl)benzoyl)-N-(4-methoxyphenyl)hydrazinecarbothioamide (9)] | 13.6 µM
O=C(NNC(=S)Nc1ccc(Br)cc1)c1ccc(-c2nc3ccccc3s2)cc1 [2-(4-(benzo[d]thiazol-2-yl)benzoyl)-N-(4-bromophenyl)hydrazinecarbothioamide (7)] | 13.7 µM
O=C(NNC(=S)Nc1cccc([N+](=O)[O-])c1)c1ccc(-c2nc3ccccc3s2)cc1 [4-(1,3-benzothiazol-2-yl)-N-{[(3-nitrophenyl)carbamothioyl]amino}benzamide (14)] | 5.7 µM
O=C(NNC(=S)Nc1ccc(F)cc1)c1ccc(-c2nc3ccccc3s2)cc1 [2-(4-(benzo[d]thiazol-2-yl)benzoyl)-N-(4-fluorophenyl)hydrazinecarbothioamide (6)] | 2.5 µM
